In patent US7786141B2 (Vertex Pharmaceuticals Incorporated, priority 2004, dated 2010):

What was measured:
M1 muscarinic receptor = target: T1, M1 muscarinic receptor (Homo sapiens, UniProt P11229); test: Functional mobilization of intracellular calcium (FLIPR) in M1-CHO cells; assay type: cell-based; conditions: Table 4; for Emax: 100% efficacy is the maximum response obtained with the Carbachol control; for M1 Activity: modulating M1 receptor
T1 construct: expressed in transfected cells; host or cells: CHO (M1-CHO)
T1 sequence (P11229 1-460): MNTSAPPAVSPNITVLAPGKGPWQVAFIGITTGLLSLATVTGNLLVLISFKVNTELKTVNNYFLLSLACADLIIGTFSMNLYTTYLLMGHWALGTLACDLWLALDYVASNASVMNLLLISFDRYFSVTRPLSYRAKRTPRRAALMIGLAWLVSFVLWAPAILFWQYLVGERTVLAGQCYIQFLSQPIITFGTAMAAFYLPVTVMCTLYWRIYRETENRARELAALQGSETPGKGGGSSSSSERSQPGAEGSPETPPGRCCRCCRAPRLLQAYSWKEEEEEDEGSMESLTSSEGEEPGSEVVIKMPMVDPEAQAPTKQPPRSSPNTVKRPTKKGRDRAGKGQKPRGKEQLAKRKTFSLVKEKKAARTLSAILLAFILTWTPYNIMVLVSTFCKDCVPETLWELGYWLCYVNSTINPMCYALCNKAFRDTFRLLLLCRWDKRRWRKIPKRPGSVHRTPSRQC
Method in brief: (§1)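 Intracellular calcium rise is measured by FLIPR fluorescence over 60 sec in CHO cells carrying human M1 or M4 receptors. Compounds are tested alone as agonists, or pre-incubated 15 min (or co-applied) ahead of carbachol at its EC80 to detect inhibition.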

M4 muscarinic receptor = target: T2, M4 muscarinic receptor (Homo sapiens, UniProt P08173); test: Functional mobilization of intracellular calcium (FLIPR) in M4-CHO cells; assay type: cell-based; conditions: Table 4; for Emax: 100% efficacy is the maximum response obtained with the Carbachol control; for M4 Activity: modulating M4 receptor
T2 construct: expressed in transfected cells; host or cells: CHO (M4-CHO)
T2 sequence (P08173 1-479): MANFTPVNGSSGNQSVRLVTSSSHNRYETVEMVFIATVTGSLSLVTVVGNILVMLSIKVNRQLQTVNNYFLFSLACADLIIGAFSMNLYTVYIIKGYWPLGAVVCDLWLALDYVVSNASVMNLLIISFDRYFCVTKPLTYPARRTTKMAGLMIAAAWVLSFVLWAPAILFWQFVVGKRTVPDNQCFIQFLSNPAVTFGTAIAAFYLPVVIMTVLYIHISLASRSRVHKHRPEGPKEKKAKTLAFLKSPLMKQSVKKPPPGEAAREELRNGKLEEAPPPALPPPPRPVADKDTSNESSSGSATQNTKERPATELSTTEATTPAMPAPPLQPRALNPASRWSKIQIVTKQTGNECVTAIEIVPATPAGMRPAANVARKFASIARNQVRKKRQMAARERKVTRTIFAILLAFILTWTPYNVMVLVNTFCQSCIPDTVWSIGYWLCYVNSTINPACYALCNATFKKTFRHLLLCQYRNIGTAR
Method in brief: as §1

SMILES | Emax (M1 muscarinic receptor) [%] | M1 Activity (M1 muscarinic receptor) | Emax (M4 muscarinic receptor) [%] | M4 Activity (M4 muscarinic receptor)
COCC(=O)N1CCC(N2CCC3(CC2)CN(C(=O)N(C)C)c2ccc(F)cc23)CC1 [compound 674] | 25 to 100 | x (activity was measured to be greater than 5.0 μM) | 25 to 100 | x (activity was measured to be greater than 5.0 μM)
CCC#CCOC(=O)N1CC[C@H](CN2CCC3(CC2)CN(C(=O)N(C)C)c2ccc(F)cc23)C1 [compound 675] | 25 to 100 | xxx (activity was measured to be less than 2.0 μM) | 25 to 100 | xxx (activity was measured to be less than 2.0 μM)
CCOC(=O)N1CCC(N2CCC3(CC2)CN(C(C)=O)c2c(-c4ccncc4)cccc23)CC1 [compound 677] | 25 to 100 | x (activity was measured to be greater than 5.0 μM) | < 25 | x (activity was measured to be greater than 5.0 μM)
CC(=O)N1CC2(CCN(C3CCN(c4cncc(-c5ccccc5C)n4)CC3)CC2)c2ccccc21 [compound 678] | 25 to 100 | xxx (activity was measured to be less than 2.0 μM) | < 25 | x (activity was measured to be greater than 5.0 μM)
COC(=O)N1C2CCC1CC(N1CCC3(CC1)CN(C(C)=O)c1ccccc13)C2 (stereo not shown) [compound 679] | 25 to 100 | xxx (activity was measured to be less than 2.0 μM) | 25 to 100 | xxx (activity was measured to be less than 2.0 μM)
COC(=O)N1CC[C@H](CN2CCC3(CC2)CN(C(C)=O)c2ccccc23)C1 [compound 680] | 25 to 100 | xx (activity was measured to be between 2.0 μM and 5.0 μM) | 25 to 100 | xxx (activity was measured to be less than 2.0 μM)
COCCOC(=O)N1CC[C@H](CN2CCC3(CC2)CN(C(C)=O)c2ccccc23)C1 [compound 681] | 25 to 100 | x (activity was measured to be greater than 5.0 μM) | < 25 | x (activity was measured to be greater than 5.0 μM)
CC(=O)N[C@@H]1CC2(CCN(C3CCC3)CC2)c2ccccc21 [compound 682] | < 25 | x (activity was measured to be greater than 5.0 μM) | < 25 | x (activity was measured to be greater than 5.0 μM)
CCCCOC(=O)N1CCC(N2CCC3(CC2)CN(C(C)=O)c2ccccc23)CC1 [compound 683] | 25 to 100 | xx (activity was measured to be between 2.0 μM and 5.0 μM) | < 25 | x (activity was measured to be greater than 5.0 μM)
CC(=O)N[C@H]1CC2(CCN(CC3CCN(C(=O)O[C@@H]4CCOC4)CC3)CC2)c2ccccc21 [compound 684] | < 25 | x (activity was measured to be greater than 5.0 μM) | < 25 | x (activity was measured to be greater than 5.0 μM)
CN(C)C(=O)N1CC2(CCN(C3CCNCC3)CC2)c2cc(F)ccc21 [compound 685] | < 25 | x (activity was measured to be greater than 5.0 μM) | 25 to 100 | xxx (activity was measured to be less than 2.0 μM)
CCOC(=O)N1C2CCC1CC(N1CCC3(CC1)CN(C(C)=O)c1c(C(F)(F)F)cccc13)C2 (stereo not shown) [compound 686] | < 25 | x (activity was measured to be greater than 5.0 μM) | < 25 | x (activity was measured to be greater than 5.0 μM)
CN(C)C(=O)N[C@H]1CC2(CCN(CCC3CC4CC[C@@H]3C4)CC2)c2ccccc21 (stereo partly shown) [compound 687] | < 25 | x (activity was measured to be greater than 5.0 μM) | < 25 | x (activity was measured to be greater than 5.0 μM)
CCOC(=O)N1CCC(N2CCC3(CC2)CN(C(=O)N2CCCCC2)c2ccccc23)CC1 [compound 688] | 25 to 100 | xxx (activity was measured to be less than 2.0 μM) | 25 to 100 | xxx (activity was measured to be less than 2.0 μM)
CCOC(=O)N1CCC(N2CCC3(CC2)CN(C2CCC4(CC2)OCCO4)c2ccc(F)cc23)CC1 [compound 689] | > 100 | xxx (activity was measured to be less than 2.0 μM) | 25 to 100 | xxx (activity was measured to be less than 2.0 μM)
CC(=O)N[C@H]1CC2(CCN(C3CCCCC3)C2)c2ccc(F)cc21 (stereo partly shown) [compound 691] | 25 to 100 | x (activity was measured to be greater than 5.0 μM) | < 25 | x (activity was measured to be greater than 5.0 μM)
CC(=O)N[C@H]1CC2(CCN(CC3CC4C=CC3C4)C2)c2ccc(F)cc21 (stereo partly shown) [compound 692] | 25 to 100 | xxx (activity was measured to be less than 2.0 μM) | 25 to 100 | xxx (activity was measured to be less than 2.0 μM)
CCC#CCOC(=O)N1CCC(N2CCC3(CC2)CN(C(=O)N(C)C)c2ccc(F)cc23)CC1 [compound 694] | 25 to 100 | xxx (activity was measured to be less than 2.0 μM) | 25 to 100 | xxx (activity was measured to be less than 2.0 μM)
CCOC(=O)N1CC[C@H](CN2CCC3(CC2)CN(C(=O)N(C)C)c2ccc(F)cc23)C1 [compound 695] | 25 to 100 | xxx (activity was measured to be less than 2.0 μM) | 25 to 100 | xxx (activity was measured to be less than 2.0 μM)
CC(=O)N[C@H]1CCC2(CCN([C@@H]3CC4CC[C@@H]3C4)CC2)c2ccccc21 [compound 696] | 25 to 100 | xx (activity was measured to be between 2.0 μM and 5.0 μM) | 25 to 100 | xxx (activity was measured to be less than 2.0 μM)
CC(=O)CN1CCC(N2CCC3(CC2)CN(C(C)=O)c2ccc(F)cc23)CC1 [compound 697] | 25 to 100 | x (activity was measured to be greater than 5.0 μM) | < 25 | x (activity was measured to be greater than 5.0 μM)
CCOC(=O)N1CCCC(N2CCC3(CC2)CN(C(=O)N(C)C)c2ccc(F)cc23)CC1 (stereo not shown) [compound 698] | > 100 | xxx (activity was measured to be less than 2.0 μM) | > 100 | xxx (activity was measured to be less than 2.0 μM)
CCCN1CCC(N2CCC3(CC2)CN(C(C)=O)c2ccc(F)cc23)CC1 [compound 699] | < 25 | x (activity was measured to be greater than 5.0 μM) | < 25 | x (activity was measured to be greater than 5.0 μM)
CCOC(=O)N1CCC(N2CCC3(CC2)CN(c2nc(C)ns2)c2ccccc23)CC1 [compound 700] | > 100 | xxx (activity was measured to be less than 2.0 μM) | > 100 | xxx (activity was measured to be less than 2.0 μM)
CN(C)C(=O)N1CC2(CCN(C3CCN(C(=O)C4CC4)CC3)CC2)c2cc(F)ccc21 [compound 701] | 25 to 100 | xxx (activity was measured to be less than 2.0 μM) | 25 to 100 | xxx (activity was measured to be less than 2.0 μM)
CCO/N=C1\CC2(CCN(CC3CCCCC3)CC2)c2cc(Cl)ccc21 [compound 702] | 25 to 100 | x (activity was measured to be greater than 5.0 μM) | 25 to 100 | x (activity was measured to be greater than 5.0 μM)
CC(=O)N[C@H]1CC2(CCN(C3CCN(C)CC3)CC2)c2ccccc21 [compound 703] | < 25 | x (activity was measured to be greater than 5.0 μM) | < 25 | x (activity was measured to be greater than 5.0 μM)
CC(C)OC(=O)N1CCCC(N2CCC3(CC2)CN(C(=O)N(C)C)c2ccc(F)cc23)CC1 (stereo not shown) [compound 704] | 25 to 100 | xxx (activity was measured to be less than 2.0 μM) | 25 to 100 | xxx (activity was measured to be less than 2.0 μM)
